Data set [1] has as its target T1, human β3-adrenergic receptor (Homo sapiens, UniProt P13945).
T1 construct: A full-length human β3 gene is obtained from a human genomic library (made by Clontech) using this as the probe; expressed in transfected cells; host or cells: CHO (Chinese hamster ovary) cells, pcDNA3
Put plainly: Test Case 1-B: human β3-adrenergic receptor agonist activity (cAMP-Screen, 96-well). It counts as cell-based. The conditions noted are these: for Emax: 0.5 h, read-out: β3 receptor I.A.; for EC50: CHO cells, cAMP. The gist of the method: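 CHO cells stably transfected with full-length human β3 gene, serum-starved 15 min, then exposed to serially diluted compound in Ham's F-12 with 100 mmol/L HEPES and 1 mmol/L IBMX (diluent concentrations) for 30 min. Cells lysed 30 min at 37 °C; cAMP quantified by cAMP-Screen immunoassay.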

The target in data set [2] is T2, human β1-adrenergic receptor (Homo sapiens, UniProt P08588).
T2 construct: expressed in transfected cells; host or cells: CHO (Chinese hamster ovary) cells, pcDNA3
T2 sequence (P08588 whole entry): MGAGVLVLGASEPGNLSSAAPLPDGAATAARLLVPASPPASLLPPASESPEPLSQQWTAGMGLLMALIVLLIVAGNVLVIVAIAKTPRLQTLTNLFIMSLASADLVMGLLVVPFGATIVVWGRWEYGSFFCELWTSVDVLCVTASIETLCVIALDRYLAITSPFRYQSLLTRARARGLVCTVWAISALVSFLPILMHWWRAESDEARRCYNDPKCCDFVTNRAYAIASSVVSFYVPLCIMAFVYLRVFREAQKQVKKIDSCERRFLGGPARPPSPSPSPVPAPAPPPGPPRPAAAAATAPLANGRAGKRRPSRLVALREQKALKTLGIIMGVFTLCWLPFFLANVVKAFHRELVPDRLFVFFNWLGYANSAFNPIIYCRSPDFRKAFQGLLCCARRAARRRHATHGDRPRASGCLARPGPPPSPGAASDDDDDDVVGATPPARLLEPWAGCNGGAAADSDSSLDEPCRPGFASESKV
Put plainly: Test Case 2-C: human β1-adrenergic receptor agonist activity (Cerep cellular functional GPCR, beta 1). In kind it is cell-based. The conditions noted are these: concentration 10 μM, isoproterenol = 100%. An excerpt:
Measurement of Human β1-Adrenergic Receptor Agonist Activity

Data set [3] addresses T3, human β2-adrenergic receptor (Homo sapiens, UniProt P07550).
T3 construct: expressed in transfected cells; host or cells: CHO (Chinese hamster ovary) cells, pcDNA3
Put plainly: Test Case 3-B: human β2-adrenergic receptor agonist activity. In kind it is cell-based. The conditions noted are these: read-out: β2 receptor I.A. The method, then: (§1) Measurement of Human β2-Adrenergic Receptor Agonist Activity
The human β2-adrenergic receptor agonist activity is measured by the same method as in Test Case 1-B using CHO (Chinese hamster ovary) cells transfected by a human β2 gene inserted in pcDNA3 (Invitrogen).

The target of data set [4] is T3, human β2-adrenergic receptor. Put plainly: Test Case 3-C: human β2-adrenergic receptor agonist activity (Cerep cellular functional GPCR, beta 2). The following applies: concentration 10 μM, isoproterenol = 100%. It counts as cell-based.
From the text: as §1

Data set [5] deals with pentobarbital-anesthetized rats. Put plainly: Test Case 9: effects on the blood pressure and heart rate in pentobarbital-anesthetized rats. It counts as in vivo, rat. The following applies: anesthetized male SD rats; 3 mg/kg intravenous over 30 seconds; maximum change, mean±standard deviation. The method, then:
Effects on the blood pressure and heart rate in pentobarbital-anesthetized rats
The blood pressure and heart rate of rats under pentobarbital anesthesia are measured, and the effects of rapid intravenous administration of the test compound on the blood pressure and heart rate can be studied. After anesthetizing male SD rats (Japan SLC) by intraperitoneal administration of 50 mg/kg of pentobarbital sodium (Tokyo Chemical Industry Co., Ltd.), 25 mg/kg of pentobarbital sodium is administered subcutaneously as maintenance anesthesia. The left femoral vein is exposed and stripped, and a SP10 polyethylene tube filled with saline (connected to a three-way stopcock via a ¼ venous needle) is inserted and left in place in the vein.
The inside of the left thigh is cut, and the femoral artery is exposed and stripped. A polyethylene tube filled with heparinized physiological saline solution (SP31, connected to a three-way stopcock via a Terumo injection needle 22G) is inserted and connected to a pressure transducer. The blood pressure is measured from the pressure transducer via a strain pressure amplifier (AP-641G, Nihon Kohden). The heart rate is measured with the pulse wave of the blood pressure as a trigger via a heart rate counter (AT-601G, Nihon Kohden). The blood pressure, mean blood pressure, and heart rate are output to a recorder and recorded. Furthermore, the mean blood pressure is recorded via the strain pressure amplifier (AP-641G) using the formula {[…]}.
Specifically, 3 mg/mL of test compound is administered rapidly at a volume of 1 mL/kg. The relative value (%) of the values at each point in time versus the mean blood pressure and heart rate before beginning administration are determined for each individual, and the mean±standard deviation of the relative value (%) at the time of the maximum change in each parameter is determined.

In data set [6] the test system is Male C57BL/6 Cr mice. Briefly: Test Case 10: mouse piloerection test. It counts as in vivo. The conditions noted are these: 10 mg/kg i.v., Score 0. The method, then:
Male C57BL/6 Cr mice (Japan SLC) are used. The dissolved compound is administered rapidly via a caudal vein. The animal is placed on the observation stand 5, 15, 30, and 60 minutes after administration, and the state of piloerection is observed. The state of piloerection is evaluated by the following 7-level scoring system according to the examples by the method of Irwin (Psychopharmacologia 1968, 13; 222-257).
Scoring system: “Score 0”: No piloerection at all; “Score 1”: Slight piloerection (piloerection on part of the body such as the back or neck); “Score 2”: Moderate piloerection (piloerection over the entire body); “Score 3”: Marked piloerection (piloerection over the entire body, conspicuous to the extent that the skin can be seen).
“Score 0.5” is between “Score 0” and “Score 1” “Score 1.5” is between […]. “Score 2.5” is between “Score 2” and “Score 3.”

For data set [7], the target named is T4, human α1A-adrenergic receptor (Homo sapiens, UniProt P35348).
T4 sequence (P35348 1-466): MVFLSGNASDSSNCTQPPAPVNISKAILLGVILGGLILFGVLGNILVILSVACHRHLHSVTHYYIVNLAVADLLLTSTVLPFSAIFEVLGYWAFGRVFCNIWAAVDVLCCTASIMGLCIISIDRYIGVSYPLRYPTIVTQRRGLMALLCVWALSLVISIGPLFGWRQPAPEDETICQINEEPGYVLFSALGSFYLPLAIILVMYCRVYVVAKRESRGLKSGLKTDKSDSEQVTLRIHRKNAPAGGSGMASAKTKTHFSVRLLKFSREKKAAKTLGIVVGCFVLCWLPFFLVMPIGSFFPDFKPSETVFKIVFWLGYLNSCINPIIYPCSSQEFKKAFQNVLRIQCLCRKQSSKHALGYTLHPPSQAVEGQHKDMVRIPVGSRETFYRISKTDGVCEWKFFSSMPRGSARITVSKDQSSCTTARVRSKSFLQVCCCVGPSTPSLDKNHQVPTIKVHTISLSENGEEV
Put plainly: Test Case 4-B: human α1A-adrenergic receptor agonist activity (Cerep cellular functional GPCR, alpha 1A). It counts as cell-based. Further details: expressed in transfected cells. The following applies: concentration 10 μM; for α1 receptor % of Control Agonist Response, Control; Epinephrine: epinephrine = 100%; for α1 receptor % of Control Agonist Response, Control; Norepinephrine: norepinephrine = 100%. An excerpt:
Measurement of Human α1A-Adrenergic Receptor Agonist Activity
The human α1A-adrenergic receptor agonist activity] can be measured by […] Functional GPCR·Gs, alpha 1A (Ref. 722-36a) listed on p. 52 of the Cerep 2008 CATALOG IN VITRO PHARMACOLOGY & ADME-TOX.

Data set [8] deals with T1, human β3-adrenergic receptor. Put plainly: Test Case 1-A: human β3-adrenergic receptor agonist activity (cAMP-EIA, 24-well). The following applies: maximum response of isoproterenol = 100%. It counts as cell-based. The method, then:
Measurement of Human β3-Adrenergic Receptor Agonist Activity
The human β3-adrenergic receptor agonist activity is measured using CHO (Chinese hamster ovary) cells transfected by a human β3 gene inserted in pcDNA3 (Invitrogen). […] A full-length human β3 gene is obtained from a human genomic library (made by Clontech) using this as the probe. These cells are cultured in Ham's F-12 medium containing 10% fetal calf serum and 400 μg/mL genectin (Invitrogen). These cells are sown in 24-well plates to make 1×10^5 cells/well. After culturing for approximately 20 hours, they are allowed to stand for two hours in serum-free Ham's F-12 medium. […] After culturing for 30 minutes, the medium is removed, and 0.1 mL of 1 N NaOH is added and allowed to stand for 20 minutes. A quantity of 0.1 mL of 1 N acetic acid is added. After stirring, centrifugation is performed, and cAMP is assayed using a cAMP-EIA kit (made by Cayman).

For data set [9], the system named is common marmoset isolated bladder smooth muscle. Put plainly: Test Case 7: common marmoset isolated bladder smooth muscle relaxation test. The following applies: KCl 40 mmol/L contracted marmoset bladder, papaverine 10^−4 mol/L relaxation = 100%. The method, then:
Common Marmoset Isolated Bladder Smooth Muscle Relaxation Test
After sacrificing common marmosets (Japan CLEA) by exsanguination, they are laparotomized and the urinary bladder is removed. […] The specimens are loaded with one gram of resting tension and stabilized for 30 or more minutes. After the resting tension of the specimen has stabilized, a final concentration of 40 mmol/L of KCl is added repeatedly, and it is confirmed that the contraction in response to KCl has basically become constant. […] Taking that relaxation response as 100%, the relaxation rate (%) at test compound concentrations of […] is calculated.

One may read the EC50 as the concentration giving half of the maximal effect. A higher EC50 goes with a less potent agent.

T3 sequence (P07550 whole entry): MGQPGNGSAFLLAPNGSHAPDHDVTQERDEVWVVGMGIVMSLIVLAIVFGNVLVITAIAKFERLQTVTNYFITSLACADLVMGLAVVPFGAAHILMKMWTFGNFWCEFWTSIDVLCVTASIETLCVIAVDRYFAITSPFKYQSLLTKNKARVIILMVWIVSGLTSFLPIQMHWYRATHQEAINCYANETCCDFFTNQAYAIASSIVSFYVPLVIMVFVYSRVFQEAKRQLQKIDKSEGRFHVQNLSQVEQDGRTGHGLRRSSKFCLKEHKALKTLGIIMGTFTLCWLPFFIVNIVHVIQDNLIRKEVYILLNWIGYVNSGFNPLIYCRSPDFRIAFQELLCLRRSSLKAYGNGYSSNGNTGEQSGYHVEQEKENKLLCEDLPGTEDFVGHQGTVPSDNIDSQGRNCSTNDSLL
T1 sequence (P13945 whole entry): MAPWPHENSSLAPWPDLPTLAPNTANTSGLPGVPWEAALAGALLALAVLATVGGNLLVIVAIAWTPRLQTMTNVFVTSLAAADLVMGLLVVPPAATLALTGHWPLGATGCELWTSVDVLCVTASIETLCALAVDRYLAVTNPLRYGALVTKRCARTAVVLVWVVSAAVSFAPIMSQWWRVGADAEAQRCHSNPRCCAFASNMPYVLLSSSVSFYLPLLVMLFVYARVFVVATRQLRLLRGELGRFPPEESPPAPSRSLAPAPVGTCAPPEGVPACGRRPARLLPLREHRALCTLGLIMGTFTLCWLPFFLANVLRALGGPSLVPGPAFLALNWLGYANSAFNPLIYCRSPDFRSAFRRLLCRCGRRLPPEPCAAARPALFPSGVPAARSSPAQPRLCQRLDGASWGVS

In the case of `CCc1n[nH]c2cc(OCCNC[C@H](O)c3cccc(NS(=O)(=O)c4cn[nH]c4)c3)ccc12` [ex149], the results for the Emax in data set [1] and in data set [3] were 100% and 0%, respectively. Further, the EC50 in [1] (Test Case 1-B) is 12 nM. Besides, the “β1 receptor % of Control Agonist Response” value (“β1 receptor %” below) in data set [2] was 5.2%. In addition, the “β2 receptor % of Control Agonist Response” value (“β2 receptor %” for short) in data set [4] amounted to 0.2%. For the same compound, in data set [5], the “increase in MBP (%)” value came out at 2.1 ± 1.9%. The “number of experimental animals matching Score 0 (no piloerection)” value (from here on “number … (no piloerection)”) in data set [6] (n=4, observation time 5 min) was found to be 4; in data set [6] (n=4, observation time 15 min), 4; in [6] (n=4, observation time 30 min) it was 4; in data set [6] (n=4, observation time 60 min), 4. The “α1 receptor % of Control Agonist Response, Control; Epinephrine” value (“α1 receptor % … Control; Epinephrine” for short) in data set [7] turned out to be 8.5%. For the same compound, the “α1 receptor % of Control Agonist Response, Control; Norepinephrine” value (shortened to “α1 receptor % … Norepinephrine”) in data set [7] is listed as 7.3%.
On to `CCc1n[nH]c2cc(OCCNC[C@H](O)c3cccc(NS(=O)(=O)c4cnn(C)c4)c3)ccc12` [ex135, (R)-N-(3-(2-(2-(3-ethylindazol-6-yloxy)ethylamino)-1-hydroxyethyl)phenyl)-1-methylpyrazole-4-sulfonamide], for which the Emax came to 105% in [1] and 7% in data set [3]. In data set [1] (Test Case 1-B), this compound yielded an EC50 of 29 nM. Besides, the “β1 receptor %” value in data set [2] was determined as 3.7%. Moreover, in data set [4], the “β2 receptor %” value is given as 1.3%. In [5], the “increase in MBP (%)” value amounted to 5.6 ± 1.2%. In addition, the “number … (no piloerection)” value in data set [6] (n=4, observation time 5 min) is recorded as 4; in data set [6] (n=4, observation time 15 min), 4; in [6] (n=4, observation time 30 min) it was 4; in data set [6] (n=4, observation time 60 min), 4. Besides, in data set [7], the “α1 receptor % … Control; Epinephrine” value stood at 0%. For the same compound, in [7], the “α1 receptor % … Norepinephrine” value is recorded as 0%.
With `O=S(=O)(Nc1cccc([C@@H](O)CNCCOc2ccc3c(OC(F)F)n[nH]c3c2)c1)c1cn[nH]c1` [ex113, (R)-N-(3-(2-(2-(3-(difluoromethoxy)-indazol-6-yloxy)ethylamino)-1-hydroxyethyl)phenyl)pyrazole-4-sulfonamide], the Emax is 108% in data set [1] and 3% in data set [3]. Further, the midpoint of the response in data set [1] (Test Case 1-B), the EC50, lay at 22 nM. Moreover, in data set [2], the “β1 receptor %” value turned out to be 3.7%. In addition, the “β2 receptor %” value in data set [4] came to 0.2%. The “increase in MBP (%)” value in [5] was 3.3 ± 1.7%. Besides, the “number … (no piloerection)” value is on record as 4 in data set [6] (n=4, observation time 5 min); 4 in data set [6] (n=4, observation time 15 min); 4 in data set [6] (n=4, observation time 30 min); 4 in [6] (n=4, observation time 60 min). In data set [7], the “α1 receptor % … Control; Epinephrine” value was 6.9%. Also, the “α1 receptor % … Norepinephrine” value in [7] amounted to 6.0%.
As for `CC(C)NCC(O)c1ccc(O)c(O)c1` (stereo not shown) [isoproterenol, reference compound], the “β3 receptor I.A.” value is 100% in data set [8] and 100% in [1] (Test Case 1-B, maximum response of isoproterenol = 100%). In addition, the “relaxant activity (%) 10^−4M” value in [9] (10^−4 M) was 54.4%. In addition, in data set [9] (10^−5 M), the “relaxant activity (%) 10^−5M” value turned out to be 50.6%.

The values are drawn from patent US20120225909A1, “INDAZOLE ANALOG” (priority 2009, published 2012).
